Source: patent US20250295679A1, “Compositions and Dosage Forms for Treatment of HPV Infection and HPV-Induced Neoplasia” (priority 2022, published 2025)

Tests used:
[1] = Ex vivo permeation and penetration across porcine vaginal tissue (Franz diffusion cell, IVPT); type: in vitro ADME; set-up: Concentration in vaginal tissue: unit not given here; details: for Tissue penetration: porcine vaginal tissue, 0.1% Compound II gel, 1% and 3% ABI-1968 formulations
From the text: FIG. 116 is an in vitro tissue permeation test in vaginal tissue comparing Compound II to ABI-1968. […] Bars B and C show the tissue penetration of a 0.1% Compound II gel in human cervical tissue. […] This may be a contributing factor to the performance of ABI-1968 in clinical studies. […] This is described in Example 41.
Freshly harvested porcine vaginal tissue was procured from local slaughterhouse in an ice box. The vaginal tissue was cut open to expose the mucosal surface and tissue was cleaned by gentle flow of PBS pH 7.4. The porcine vaginal tissue was cut into circular portions (approximately 2 cm^2) with help of a […] punch.
The circular portion of tissue was sandwiched between two chambers of a Franz diffusion cell with an active diffusion area of 1 cm^2, and the mucosal layer was exposed to the donor chambers. The resistance across porcine vaginal tissue was measured using a wave form generator to ensure the integrity of the tissue segment used for the permeation study. Porcine vaginal tissue with resistance of ≥3 KΩ·cm^2 was used for study. The receiver chamber was filled with 8 ml of 5% solutol PBS 7.4 pH, which was stirred at 600 rpm with a 3 mm magnetic stir bar and the temperature was maintained at 37° C. with a circulating water bath.
The ˜200 mg of gel was filled into tared 1 mL syringe and gel was dispensed to donor chamber. The gel was spread on to mucosal surface with pre weighed applicator. After loading and spreading of the gel onto surface of mucosal surface, the weight of 1 mL syringe and applicator was noted to determine the exact amount of gel loaded into donor chamber.
Time course (2 h, 4 h and 8 h) porcine vaginal permeation studies were performed. After loading gel, 500 μL samples were withdrawn from the receiver compartment at different time intervals and each time an equal volume of fresh receiver media was used to replace withdrawn samples. The sample withdrawn at each time interval were stored immediately in −20° C. until analysis. After 2, 4 and 8 h, the formulation was removed from the donor chamber with help of syringe and cleaned with cotton swab. The tissue was removed and washed gently with wash solution (50% methanol in water) 5 times and alternatively cleaning with cotton swab.
An 8 mm punch of active diffusion area of washed porcine vaginal tissue was removed, weighed and transferred into a tube. This tube was immediately placed into dry ice for ˜15 min. After specified time, tissue was removed and placed in precooled dish. The tissue was minced into smaller pieces on a dish with a precooled surgical blade. The minced tissue was transferred to sample tubes and dish was rinsed with 1 ml of 5% solutol in PBS 7.4 pH and transferred to same tissue sample tube. These tubes were stored in −70° C. until analysis. […]

[2] = Bulk (accelerated) stability, one week, HPLC and XRPD; details: for HPLC purity, Initial: initial chemical purity before storage; for Bulk (HPLC) Purity / Bulk Color: 1 week
Experimental: Bulk stability: Accelerated stability experiments were conducted at 25° C./92% RH and 40° C./75% RH in an open container, 60° C. in a tight container for one week.
Samples were characterized by XRPD and HPLC and inspected for color change.
Accelerated stability experiments were conducted at 25° C./92% RH in an open container, at 40° C./75% RH in an open container, and at 60° C. in a tight container for one week.

[3] = Tablet stability study (storage, purity by HPLC); type: physicochemical; details: within one month at 40° C. and 75% RH
Experimental: Tablets were prepared using the excipients and excipient ratios shown in the first column of the following tables. The tablets were then stored under the conditions indicated and periodically sampled and tested for purity by HPLC.

[4] = Hygroscopicity by DVS at 25° C.; type: physicochemical; details: for XRPD after DVS test: 25° C.
Experimental: Hygroscopicity was investigated by DVS at 25° C., using the following method: • Method: 40-0-95-0-40% RH, dm/dt=0.002

[5] = Solubility in buffers, water and simulated vaginal fluid at 37° C.; details: 37° C.
Experimental: About 4 mg of Compound I Pattern 1 was added into 2 mL of buffer solution.
(§1) Solubility was tested in five media, pH 3.0 citrate buffer, pH 4.5 acetate buffer, pH 6.8 phosphate buffer, water, simulated vaginal fluid (pH 4.2) at 37° C. for 0.5 h and 2 h.
The salt amount used is equivalent to 10 mg anhydrous free base. […] The obtained clear solutions were analyzed by pH meter for pH, and solubility was determined by observation.
as §1

[6] = Polymorph screening by equilibration in solvents; type: physicochemical
[7] = BS1: solid state, 25° C./92% RH, open container
[8] = BS2: solid state, 40° C./75% RH, open container
[9] = BS3: solid state, 60° C., tight container

## CCCCCCCCCCCCCCCCCCOCCOP(=O)(COCCn1cnc2c(=O)[nH]c(N)nc21)OCc1ccccc1 (stereo not drawn) [ABI-1968]
[1]; 3% dose, FIG. 116
  Concentration in vaginal tissue: < 15
[1]; FIG. 116
  Tissue penetration: substantially smaller degree
[1]; up to a 3% dose, Bar F and G in FIG. 116
  Tissue concentration: < 15 ng/mg

## CCOC(=O)[C@H](C)NP(=O)(COCCn1cnc2c(OC)nc(N)nc21)OCc1ccccc1 (stereo partly drawn) [Compound I, ethyl(((2-(2-amino-6-methoxy-9H-purin-9-yl)ethoxy)methyl)(benzyloxy)-phosphoryl)-L-alaninate]
[2]; listed as Compound I free base Pattern 1
  HPLC purity, Initial: 98.7%
[3]
  Degradation of tablets: substantially degrade
[4]; 0% RH, DVS 25° C.
  Desorption (%) Cycle 1: 0.00%
  Desorption (%) Cycle 2: 0.19%
  Sorption (%) Cycle 1: 0.00%
  Sorption (%) Cycle 2: 0.19%
[4]; 10% RH, DVS 25° C.
  Desorption (%) Cycle 1: 0.11%
  Desorption (%) Cycle 2: 0.37%
  Sorption (%) Cycle 1: 0.08%
  Sorption (%) Cycle 2: 0.22%
[4]; 20% RH, DVS 25° C.
  Desorption (%) Cycle 1: 0.23%
  Desorption (%) Cycle 2: 0.57%
  Sorption (%) Cycle 1: 0.17%
  Sorption (%) Cycle 2: 0.30%
[4]; 30% RH, DVS 25° C.
  Desorption (%) Cycle 1: 0.47%
  Desorption (%) Cycle 2: 0.83%
  Sorption (%) Cycle 1: 0.28%
  Sorption (%) Cycle 2: 0.44%
[4]; 40% RH, DVS 25° C.
  Desorption (%) Cycle 1: 0.60%
  Desorption (%) Cycle 2: 1.09%
  Sorption (%) Cycle 1: 0.41%
  Sorption (%) Cycle 2: 0.62%
[4]; 50% RH, DVS 25° C.
  Desorption (%) Cycle 2: 1.48%
  Sorption (%) Cycle 1: 0.61%
[4]; 60% RH, DVS 25° C.
  Desorption (%) Cycle 2: 1.96%
  Sorption (%) Cycle 1: 0.85%
[4]; 70% RH, DVS 25° C.
  Desorption (%) Cycle 2: 2.78%
  Sorption (%) Cycle 1: 1.14%
[4]; 80% RH, DVS 25° C.
  Desorption (%) Cycle 2: 4.33%
  Sorption (%) Cycle 1: 1.64%
[4]; 90% RH, DVS 25° C.
  Desorption (%) Cycle 2: 9.10%
  Sorption (%) Cycle 1: 4.27%
[4]; 95% RH, DVS 25° C.
  Desorption (%) Cycle 2: 14.32%
  Sorption (%) Cycle 1: 14.32%
[4]; after humidity cycle 40-0-95-0-40% RH
  XRPD after DVS test: No form change,
[5]; solution in pH 3.0 100 mM citrate buffer
  pH at 2 hrs: (2.98)
[5]; solution in pH 4.5 50 mM acetate buffer
  pH at 2 hrs: (4.50)
[5]; solution in pH 6.8 50 mM phosphate buffer
  pH at 2 hrs: (6.81)
[5]; solution in simulated vaginal fluid (pH adjusted with 0.2N NaOH)
  pH at 2 hrs: (5.53)
[5]; solution in water
  pH at 2 hrs: (7.55)

## CCOC(=O)[C@H](C)N[P@@](=O)(COCCn1cnc2c(OC)nc(N)nc21)OCc1ccccc1.O=C(O)/C=C/C(=O)O [Compound II]
[6]; PS1: IPA
  Crystal modification after 1 week equilibration at 25° C.: Compound II Pattern 1
[6]; PS2: Heptanes
  Crystal modification after 1 week equilibration at 25° C.: Compound II Pattern 1
[6]; PS3: Water
  Crystal modification after 1 week equilibration at 25° C.: Compound II Pattern 1
[6]; PS4: ACN
  Crystal modification after 1 week equilibration at 25° C.: Compound II Pattern 2
[6]; PS5: MEK
  Crystal modification after 1 week equilibration at 25° C.: Compound II Pattern 3
[6]; PS6: Acetone
  Crystal modification after 1 week equilibration at 25° C.: Compound II Pattern 1
[6]; PS7: IPA/heptanes (3/10, v/v)
  Crystal modification after 1 week equilibration at 25° C.: Compound II Pattern 1
[6]; PS8: water/ACN (2.9/97.1, v/v)
  Crystal modification after 1 week equilibration at 25° C.: Compound II Pattern 2
[6]; PS9: IPA/MTBE (1/3, v/v)
  Crystal modification after 1 week equilibration at 25° C.: Compound II Pattern 1
[6]; PS10: EA/toluene (1/3, v/v)
  Crystal modification after 1 week equilibration at 25° C.: Compound II Pattern 1
[6]; equilibration in solvents, 1 week, 25° C.
  Dissociation of the salt during equilibration experiments: no dissociation was observed
[2]; 25° C./92% RH open, 40° C./75% RH open, 60° C. tight container, one week
  Stability after exposure to the three conditions: good physical and chemical stability
[2]; [7]
  Bulk (HPLC) Purity: 99.5%
  Bulk Color: No change
[2]; [8]
  Bulk (HPLC) Purity: 99.4%
  Bulk Color: No change
[2]; [9]
  Bulk (HPLC) Purity: 99.7%
  Bulk Color: No change
[2]
  HPLC purity, Initial: 99.7%
[4]; DVS 25° C., 0% RH
  Desorp. (%) Cycle 1: 0.03%
  Desorp. (%) Cycle 2: 0.03%
  Sorp. (%) Cycle 1: 0.03%
  Sorp. (%) Cycle 2: 0.03%
[4]; DVS 25° C., 10% RH
  Desorp. (%) Cycle 1: 0.05%
  Desorp. (%) Cycle 2: 0.05%
  Sorp. (%) Cycle 1: 0.04%
  Sorp. (%) Cycle 2: 0.04%
[4]; DVS 25° C., 20% RH
  Desorp. (%) Cycle 1: 0.08%
  Desorp. (%) Cycle 2: 0.07%
  Sorp. (%) Cycle 1: 0.06%
  Sorp. (%) Cycle 2: 0.06%
[4]; DVS 25° C., 30% RH
  Desorp. (%) Cycle 1: 0.10%
  Desorp. (%) Cycle 2: 0.08%
  Sorp. (%) Cycle 1: 0.08%
  Sorp. (%) Cycle 2: 0.07%
[4]; DVS 25° C., 40% RH
  Desorp. (%) Cycle 1: 0.17%
  Desorp. (%) Cycle 2: 0.10%
  Sorp. (%) Cycle 1: 0.10%
  Sorp. (%) Cycle 2: 0.09%
[4]; DVS 25° C., 50% RH
  Desorp. (%) Cycle 2: 0.12%
  Sorp. (%) Cycle 1: 0.12%
[4]; DVS 25° C., 60% RH
  Desorp. (%) Cycle 2: 0.14%
  Sorp. (%) Cycle 1: 0.13%
[4]; DVS 25° C., 70% RH
  Desorp. (%) Cycle 2: 0.18%
  Sorp. (%) Cycle 1: 0.16%
[4]; DVS 25° C., 80% RH
  Desorp. (%) Cycle 2: 0.21%
  Sorp. (%) Cycle 1: 0.19%
[4]; DVS 25° C., 90% RH
  Desorp. (%) Cycle 2: 0.24%
  Sorp. (%) Cycle 1: 0.23%
[4]; DVS 25° C., 95% RH
  Desorp. (%) Cycle 2: 0.24%
  Sorp. (%) Cycle 1: 0.24%
[4]; DVS at 25° C., in words
  Hygroscopicity: slightly hygroscopic
[4]; after DVS 40-0-95-0-40% RH
  XRPD after DVS test: No form change
[4]; after humidity cycle 40-0-95-0-40% RH, listed as Compound II Pattern 1, monofumarate
  XRPD after DVS test: No form change
[4]; after humidity cycle 40-0-95-0-40% RH, monofumarate
  XRPD after DVS test: does not change
[4]; up to / in 95% RH, DVS 25° C.
  Water uptake: about 0.2%
[1]; FIG. 116
  Tissue penetration: high tissue penetration
[5]; ES1: pH 3.0, 100 mM citrate buffer
  pH of solution at 2 hours: 2.85
[5]; ES2: pH 4.5, 50 mM acetate buffer
  pH of solution at 2 hours: 4.2
[5]; ES3: pH 6.8, 50 mM phosphate buffer
  pH of solution at 2 hours: 6.47
[5]; ES4: Water
  pH of solution at 2 hours: 2.87
[5]; ES5: Simulated vaginal fluid (pH adjusted by 0.1N NaOH)
  pH of solution at 2 hours: 5.79
